From PMC11378297, “Discovery and Profiling of New Multimodal Phenylglycinamide Derivatives as Potent Antiseizure and Antinociceptive Drug Candidates” (ACS Chemical Neuroscience, 2024)

Columns and labels:
CYP3A4 = target: T1, CYP3A4 (Homo sapiens, UniProt P08684); assay: CYP3A4 P450-Glo assay; assay type: in vitro ADME; settings: 10 μM
T1 construct: purchased Promega (Madison, WI, USA)
Experimental: The inhibition effect of enantiomers on CYP2C9 was also determined, but only at the highest concentrations (Figure 10C). In summary, the potential for DDIs of the tested enantiomers in comparison to the reference CYP inhibitors was estimated as very low.
Figure 10 Influence of (R)-31, (R)-32, and (R)-33 on: CYP3A4 activity (A) and the reference inhibitor ketoconazole (KE), CYP2D6 activity (B) and the reference inhibitor quinidine (QD), CYP2C9 activity (C) and the reference inhibitor sulfaphenazole (SE). The results are presented as means + SD. Statistical significance was evaluated by one-way ANOVA, followed by Bonferroni’s multiple comparison post hoc test (Graph Pad Prism 8.0.1 software) *p < 0.05, **p < 0.01, ***p < 0.001, ****p < 0.0001.
All assays and protocols used for the evaluation of compounds ADME-Tox parameters were described previously.[35]−[38],[95]−[98] […] The vitality of the cells was assessed using the CellTiter 96 AQueous Non-Radioactive Cell Proliferation Assay (Promega, Madison, WI, USA), following a 48 h incubation period with either the reference medication, doxorubicin (DOX), or serial dilutions of the investigated compounds. Using an EnSpire PerkinElmer microplate reader (Waltham, MA, USA), the luminescent signal and absorbances (measured at 490 nm) in DDIs and safety assays were determined. […]

[1] = system: PTZ-induced kindling, mice; assay: PTZ-induced kindling model; assay type: in vivo, mouse
Experimental: We investigated the impact of lead compound (R)-32 on PTZ-induced kindling in mice to further assess its antiseizure potential (Figure 3). […] The PTZ-induced kindling model is widely recognized as a useful method to induce chronic increase in susceptibility to epileptic seizures.
Figure 3 Effect of repeated treatment with (R)-32 in PTZ-induced kindling model in mice. […] Data are presented as means of seizure severity (n = 10–15 animals). Statistical significance was evaluated by a mixed effects model for repeated measures followed by Tukey’s post hoc test: **p < 0.01, […] vs control group (GraphPad Prism 8.4.3).
The procedure was performed as described in detail in our previous studies.[88],[89] […] Seizures were induced three times a week by i.p. administration of PTZ at a subconvulsive dose of 40 mg/kg. […] The seizure severity was scored using the modified Racine’s scale. […] The locomotor activity test, the elevated plus maze test, and the FST were performed 24 h after the last PTZ injection, according to the methods described in detail elsewhere. After completion of behavioral tests, animals were sacrificed. Hippocampi and cortices were dissected from the brains, frozen, and stored at −80 °C until assay. Following each PTZ injection, the mean seizure severity scores were determined for each experimental group. A mixed effects model for repeated measurements was used for analysis, along with Tukey’s post hoc test. The percentage of fully kindled mice was compared using Fisher’s exact probability test.

HepG2 cell line = assay: hepatotoxicity, HepG2 cell viability; assay type: cell-based, human; settings: 25 μM, 72 h of incubation (Figure 11)
Experimental: The hepatotoxicity potential was assessed with the HepG2 cell line and the reference cytostatic drug doxorubicin.
The results are presented as means + SD. Statistical significance was evaluated by one-way ANOVA, followed by Bonferroni’s multiple comparison post hoc test (Graph Pad Prism 8.0.1 software, San Diego, CA, USA): *p < 0.05, ***p < 0.001, ****p < 0.0001 vs negative control (DMSO 1% in growth media).

T1 sequence (P08684 whole entry): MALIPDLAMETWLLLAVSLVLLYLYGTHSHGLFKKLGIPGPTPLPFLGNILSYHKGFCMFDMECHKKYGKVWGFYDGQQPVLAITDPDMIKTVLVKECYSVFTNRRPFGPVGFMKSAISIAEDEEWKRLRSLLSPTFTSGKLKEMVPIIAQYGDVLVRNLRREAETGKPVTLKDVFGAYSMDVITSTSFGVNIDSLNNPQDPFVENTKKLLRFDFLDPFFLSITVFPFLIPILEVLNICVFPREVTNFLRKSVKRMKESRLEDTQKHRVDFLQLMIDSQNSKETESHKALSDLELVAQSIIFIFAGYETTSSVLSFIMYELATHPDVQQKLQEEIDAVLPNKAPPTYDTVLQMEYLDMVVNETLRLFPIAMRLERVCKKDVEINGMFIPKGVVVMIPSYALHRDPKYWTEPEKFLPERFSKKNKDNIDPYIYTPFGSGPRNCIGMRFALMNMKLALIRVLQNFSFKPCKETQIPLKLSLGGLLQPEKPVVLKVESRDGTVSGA

CC(=O)N[C@@H](C(=O)N1CCN(c2cccc(C(F)(F)F)c2)CC1)c1ccccc1 [(R)-31, (R)-N-(2-Oxo-1-phenyl-2-(4-(3-(trifluoromethyl)phenyl)piperazin-1-yl)ethyl)acetamide]
effect on CYP3A4 activity (CYP3A4): significantly inhibited

CC(=O)N[C@@H](C(=O)N1CCN(c2cccc(OC(F)(F)F)c2)CC1)c1ccccc1 [(R)-32, (R)-N-(2-Oxo-1-phenyl-2-(4-(3-(trifluoromethoxy)phenyl)piperazin-1-yl)ethyl)acetamide]
effect on kindling development ([1]; 20 mg/kg i.p. repeatedly every 24 h): did not significantly affect kindling development | effect on kindling development ([1]; 40 mg/kg i.p. repeatedly every 24 h): did not significantly affect kindling development | effect on kindling progression ([1]; 80 mg/kg i.p. repeatedly, p < 0.01 after 19th PTZ injection): slightly suppressed kindling progression | average seizure severity score after the first PTZ injection ([1]; 80 mg/kg, mean ± SD): 0.87 ± 0.35 | average seizure severity score after the last PTZ injection ([1]; 80 mg/kg, mean ± SD): 2.65 ± 1.28

CC(=O)N[C@@H](C(=O)N1CCN(c2cccc(SC(F)(F)F)c2)CC1)c1ccccc1 [(R)-33, (R)-N-(2-Oxo-1-phenyl-2-(4-(3-((trifluoromethyl)thio)phenyl)piperazin-1-yl)ethyl)acetamide]
HepG2 cell viability (HepG2 cell line): reduced slightly, but statistically significant cell viability
